Experimental data taken from the supplement of paper PMC10307832.

Columns and labels:
Assay in all cases: relative viability (nuclei count vs DMSO), 5 days (fraction); higher = more cells survive
[1] = compound: Cc1ccc2nc(NCCN)c3ncc(C)n3c2c1 + CC(C)C[C@H](NC(=O)[C@H](Cc1ccccc1)NC(=O)c1cnccn1)B(O)O [Bortezomib] (partner 0.002 µM)
Method in brief: (§1)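 The day after seeding in 1536-well plates, lung cancer cell lines were treated by pin tool with a single drug, or with a fixed anchor-drug dose together with five library-drug doses (not always all listed) in √10 steps. After 5 days, a combined fix-and-stain solution (final 0.05% Triton X-100, 1% formaldehyde, 1 ug/ml Hoechst) was added. Nuclei counted on 4× images gave relative viability as treated counts over vehicle counts, reported as the median of duplicate plates.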

[2] = compound: Cc1ccc2nc(NCCN)c3ncc(C)n3c2c1 + CCNC(=O)c1noc(-c2cc(C(C)C)c(O)cc2O)c1-c1ccc(CN2CCOCC2)cc1 [Luminespib] (partner 0.01 µM)
Method in brief: as §1

[3] = compound: Cc1ccc2nc(NCCN)c3ncc(C)n3c2c1 + O=C(c1cc(Cc2n[nH]c(=O)c3ccccc23)ccc1F)N1CCN(C(=O)C2CC2)CC1 [Olaparib] (partner 8 µM)
Method in brief: as §1

Salubrinal + Crizotinib = compound: O=C(/C=C/c1ccccc1)NC(NC(=S)Nc1cccc2cccnc12)C(Cl)(Cl)Cl [Salubrinal] + C[C@@H](Oc1cc(-c2cnn(C3CCNCC3)c2)cnc1N)c1c(Cl)ccc(F)c1Cl [Crizotinib] (partner 1 µM)
Method in brief: as §1

## UMC-11
[1]; first compound 0.04 µM
  relative viability: 0.818
[1]; first compound 0.1265 µM
  relative viability: 0.809
[1]; first compound 0.4 µM
  relative viability: 0.667
[1]; first compound 1.265 µM
  relative viability: 0.795
[1]; first compound 4 µM
  relative viability: 0.671
[2]; first compound 0.04 µM
  relative viability: 1.02
[2]; first compound 0.1265 µM
  relative viability: 0.834
[2]; first compound 0.4 µM
  relative viability: 1
[2]; first compound 1.265 µM
  relative viability: 0.996
[2]; first compound 4 µM
  relative viability: 0.894
[3]; first compound 0.04 µM
  relative viability: 0.376
[3]; first compound 0.1265 µM
  relative viability: 0.355
[3]; first compound 0.4 µM
  relative viability: 0.388
[3]; first compound 1.265 µM
  relative viability: 0.35
[3]; first compound 4 µM
  relative viability: 0.301
Salubrinal + Crizotinib; first compound 0.08 µM
  relative viability: 0.577
Salubrinal + Crizotinib; first compound 0.253 µM
  relative viability: 0.54
Salubrinal + Crizotinib; first compound 0.8 µM
  relative viability: 0.586
Salubrinal + Crizotinib; first compound 2.53 µM
  relative viability: 0.578
Salubrinal + Crizotinib; first compound 8 µM
  relative viability: 0.599
